Experiment [1] has as its target T1, EGFR SVD (Homo sapiens, UniProt P00533, DUP768-770).
T1 construct: expressed in transfected cells; host or cells: BaF3 (murine pro-B), retroviral pMXs-IRES-Blasticidin
The experiment in a line: Activity for inhibiting EGFR (Table A), EGFR SVD. The experiment is classed as cell-based. Particulars: read-out: EGFR SVD, potency code (IC50).

Experiment [2] concerns the target T2, HER2 WT (Homo sapiens, UniProt P04626). Description: Activity for inhibiting HER2 (Table B), HER2 WT. The format is cell-based.
Experiment [3] has as its target T2, HER2 WT. The experiment in a line: BaF3 cell proliferation assay, HER2 WT (Table B). The experiment is classed as cell-based. Particulars: potency code, 3 days, CellTiterGlo, read-out: HER2 WT (Activity for Inhibiting HER2).
The target in experiment [4] is T3, EGFR NPH (Homo sapiens, UniProt P00533, DUP771-773).
T3 construct: expressed in transfected cells; host or cells: BaF3 (murine pro-B), retroviral pMXs-IRES-Blasticidin
T3 sequence (P00533 with tags, fused parts or gaps DUP771-773): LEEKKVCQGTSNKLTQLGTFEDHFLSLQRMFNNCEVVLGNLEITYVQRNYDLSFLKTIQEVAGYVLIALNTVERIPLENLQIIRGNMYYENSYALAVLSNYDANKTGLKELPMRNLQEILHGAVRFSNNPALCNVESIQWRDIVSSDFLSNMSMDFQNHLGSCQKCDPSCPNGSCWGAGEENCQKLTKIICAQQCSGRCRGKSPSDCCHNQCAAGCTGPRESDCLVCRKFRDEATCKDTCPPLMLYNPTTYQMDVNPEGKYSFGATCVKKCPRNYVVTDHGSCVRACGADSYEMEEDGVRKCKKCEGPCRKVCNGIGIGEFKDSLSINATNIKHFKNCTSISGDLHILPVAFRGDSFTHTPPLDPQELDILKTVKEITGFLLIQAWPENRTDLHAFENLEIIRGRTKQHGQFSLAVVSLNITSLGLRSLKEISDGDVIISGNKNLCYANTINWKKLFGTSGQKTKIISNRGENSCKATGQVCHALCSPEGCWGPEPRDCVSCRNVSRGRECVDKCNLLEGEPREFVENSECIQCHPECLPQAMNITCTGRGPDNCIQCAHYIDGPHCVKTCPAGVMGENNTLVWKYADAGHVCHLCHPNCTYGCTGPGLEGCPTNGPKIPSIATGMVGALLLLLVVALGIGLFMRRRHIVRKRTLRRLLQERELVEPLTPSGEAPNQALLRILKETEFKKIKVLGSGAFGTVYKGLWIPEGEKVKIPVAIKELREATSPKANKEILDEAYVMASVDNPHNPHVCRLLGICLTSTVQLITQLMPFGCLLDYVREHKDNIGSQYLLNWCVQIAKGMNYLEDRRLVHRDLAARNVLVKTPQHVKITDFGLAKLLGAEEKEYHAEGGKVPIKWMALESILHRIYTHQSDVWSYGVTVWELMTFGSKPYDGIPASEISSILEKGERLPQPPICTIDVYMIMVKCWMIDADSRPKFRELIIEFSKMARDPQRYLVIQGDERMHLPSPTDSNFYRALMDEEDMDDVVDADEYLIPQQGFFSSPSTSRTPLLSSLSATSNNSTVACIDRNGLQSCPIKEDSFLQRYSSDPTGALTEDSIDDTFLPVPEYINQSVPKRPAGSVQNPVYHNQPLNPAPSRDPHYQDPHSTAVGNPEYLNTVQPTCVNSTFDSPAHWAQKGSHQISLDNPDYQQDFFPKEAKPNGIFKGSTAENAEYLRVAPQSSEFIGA
Description: BaF3 cell proliferation assay, EGFR NPH (Table A). The experiment is classed as cell-based. The note with it: potency code, 3 days, CellTiterGlo, read-out: EGFR NPH (Activity for Inhibiting EGFR). Summed up: (§1)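 BaF3 + retroviral EGFR/HER2 mutant (two rounds of spinfection, 8 μg/ml polybrene); 10 μg/ml Blasticidin selection 1 wk; IL-3 withdrawn to select IL-3-independent growth. EC50 from cell proliferation.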

For experiment [5], the target named is T4, HER2 YVMA (Homo sapiens, UniProt P04626, INS775YVMA).
T4 construct: expressed in transfected cells; host or cells: BaF3 (murine pro-B)
The experiment in a line: BaF3 cell proliferation assay, HER2 YVMA (Table B). The experiment is classed as cell-based. Particulars: potency code, 3 days, CellTiterGlo, read-out: HER2 YVMA (Activity for Inhibiting HER2). (In general: ATP-based viability assays read luminescence as a measure of living cells.)

The target in experiment [6] is T3, EGFR NPH. Description: Activity for inhibiting EGFR (Table A), EGFR NPH. The experiment is classed as cell-based. The note with it: read-out: EGFR NPH, potency code (IC50).
In experiment [7] the target is T5, EGFR WT (Homo sapiens, UniProt P00533). Description: Activity for inhibiting EGFR (Table A), EGFR WT. Particulars: read-out: EGFR WT, potency code (IC50). The experiment is classed as cell-based.
T5 sequence (P00533 25-1210 N540K): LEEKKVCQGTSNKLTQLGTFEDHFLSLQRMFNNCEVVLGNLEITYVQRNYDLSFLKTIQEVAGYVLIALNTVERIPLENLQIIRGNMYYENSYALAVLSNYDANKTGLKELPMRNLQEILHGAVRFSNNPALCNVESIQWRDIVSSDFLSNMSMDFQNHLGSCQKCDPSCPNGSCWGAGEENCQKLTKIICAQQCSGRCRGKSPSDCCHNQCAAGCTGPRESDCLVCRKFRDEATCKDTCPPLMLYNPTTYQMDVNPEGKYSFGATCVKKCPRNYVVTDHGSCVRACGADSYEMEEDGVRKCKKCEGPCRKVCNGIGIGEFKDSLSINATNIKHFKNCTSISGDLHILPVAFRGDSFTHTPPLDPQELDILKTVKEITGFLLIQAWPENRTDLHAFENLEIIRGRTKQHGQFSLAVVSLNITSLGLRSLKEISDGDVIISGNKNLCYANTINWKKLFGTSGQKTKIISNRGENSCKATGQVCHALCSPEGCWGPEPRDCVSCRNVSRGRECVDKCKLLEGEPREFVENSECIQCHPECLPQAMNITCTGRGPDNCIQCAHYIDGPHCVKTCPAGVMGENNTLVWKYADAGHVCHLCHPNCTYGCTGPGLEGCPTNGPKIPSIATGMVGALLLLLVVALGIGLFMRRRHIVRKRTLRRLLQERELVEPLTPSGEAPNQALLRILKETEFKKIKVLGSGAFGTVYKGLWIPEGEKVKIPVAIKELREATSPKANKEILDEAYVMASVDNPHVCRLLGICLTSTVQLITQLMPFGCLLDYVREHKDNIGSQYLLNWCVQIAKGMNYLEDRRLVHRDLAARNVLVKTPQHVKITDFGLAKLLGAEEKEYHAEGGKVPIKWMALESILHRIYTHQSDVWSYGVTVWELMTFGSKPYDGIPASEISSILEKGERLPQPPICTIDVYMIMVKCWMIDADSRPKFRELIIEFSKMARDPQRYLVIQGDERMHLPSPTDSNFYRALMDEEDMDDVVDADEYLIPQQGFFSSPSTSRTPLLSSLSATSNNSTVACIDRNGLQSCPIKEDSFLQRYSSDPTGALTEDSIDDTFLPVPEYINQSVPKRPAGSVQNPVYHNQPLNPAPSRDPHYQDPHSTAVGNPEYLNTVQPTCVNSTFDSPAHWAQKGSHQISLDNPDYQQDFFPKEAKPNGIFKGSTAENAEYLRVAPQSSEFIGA
Experiment [8] has as its target T6, HER2 S310F (Homo sapiens, UniProt P04626, S310F).
T6 construct: expressed in transfected cells; host or cells: BaF3 (murine pro-B)
Description: BaF3 cell proliferation assay, HER2 S310F (Table B). The format is cell-based. Particulars: potency code, 3 days, CellTiterGlo, read-out: HER2 S310F (Activity for Inhibiting HER2).

Experiment [9] has as its target T6, HER2 S310F. The experiment in a line: Activity for inhibiting HER2 (Table B), HER2 S310F. The format is cell-based. Particulars: read-out: HER2 S310F, potency code (IC50). The method, then:
(§2) EC50 values were determined with the same application.

In experiment [10] the target is T7, EGFR V3 (Homo sapiens, UniProt P00533, DELINS30-297G).
T7 construct: expressed in transfected cells; host or cells: BaF3 (murine pro-B), retroviral pMXs-IRES-Blasticidin
T7 sequence (P00533 with tags, fused parts or gaps DELINS30-297G): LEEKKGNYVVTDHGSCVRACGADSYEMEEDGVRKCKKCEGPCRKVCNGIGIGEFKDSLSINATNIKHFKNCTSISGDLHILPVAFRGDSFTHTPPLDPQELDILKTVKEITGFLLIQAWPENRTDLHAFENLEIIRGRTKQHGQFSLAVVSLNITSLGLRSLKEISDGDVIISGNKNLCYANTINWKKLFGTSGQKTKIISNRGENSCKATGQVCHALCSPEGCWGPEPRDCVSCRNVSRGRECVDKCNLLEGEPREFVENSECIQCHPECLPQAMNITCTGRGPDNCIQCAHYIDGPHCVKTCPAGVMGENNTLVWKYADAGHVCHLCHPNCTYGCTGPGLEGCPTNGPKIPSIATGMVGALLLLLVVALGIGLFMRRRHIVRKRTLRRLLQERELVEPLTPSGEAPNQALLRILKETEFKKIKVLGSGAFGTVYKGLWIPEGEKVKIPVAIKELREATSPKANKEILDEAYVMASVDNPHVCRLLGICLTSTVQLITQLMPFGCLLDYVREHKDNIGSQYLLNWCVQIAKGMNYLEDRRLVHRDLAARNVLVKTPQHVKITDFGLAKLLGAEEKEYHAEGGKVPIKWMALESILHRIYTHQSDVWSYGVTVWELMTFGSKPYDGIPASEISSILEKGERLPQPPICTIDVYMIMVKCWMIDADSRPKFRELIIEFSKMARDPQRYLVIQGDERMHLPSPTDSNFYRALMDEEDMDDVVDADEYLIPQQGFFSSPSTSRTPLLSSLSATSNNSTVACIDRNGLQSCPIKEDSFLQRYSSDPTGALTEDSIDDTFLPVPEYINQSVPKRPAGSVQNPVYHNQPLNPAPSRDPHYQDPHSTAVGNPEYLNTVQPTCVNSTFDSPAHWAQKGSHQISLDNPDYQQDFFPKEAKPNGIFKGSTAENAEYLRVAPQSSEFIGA
The experiment in a line: BaF3 cell proliferation assay, EGFR V3 (Table A). Particulars: potency code, 3 days, CellTiterGlo, read-out: EGFR V3 (Activity for Inhibiting EGFR). The experiment is classed as cell-based. Summed up:
as §1

Experiment [11] addresses T7, EGFR V3. The experiment in a line: Activity for inhibiting EGFR (Table A), EGFR V3 (EGFR-Viii). The format is cell-based. The note with it: read-out: EGFR V3, potency code (IC50).
Experiment [12] deals with T5, EGFR WT. The experiment in a line: BaF3 cell proliferation assay, EGFR WT (Table A). The experiment is classed as cell-based. Particulars: potency code, 3 days, CellTiterGlo, read-out: EGFR WT (Activity for Inhibiting EGFR). Summed up:
as §1

Experiment [13] has as its target T1, EGFR SVD. Description: BaF3 cell proliferation assay, EGFR SVD (Table A). The format is cell-based. The note with it: potency code, 3 days, CellTiterGlo, read-out: EGFR SVD (Activity for Inhibiting EGFR). The method, boiled down: as §1
Experiment [14] has as its target T4, HER2 YVMA. Description: Activity for inhibiting HER2 (Table B), HER2 YVMA. The format is cell-based. The note with it: read-out: HER2 YVMA, potency code (IC50). The method, then:
as §2

Experiment [15] deals with Her2 S310F BaF3 tumors. The experiment in a line: Tumor growth in athymic nude mice bearing Her2 S310F BaF3 tumors. The experiment is classed as in vivo. Particulars: for Tumor response: FIG. 28. The method, then: Tumor size was measured for each dosing schedule, and analyzed to assess regression. […] The effect was further confirmed in the dose-dependent experiment.
A mouse tumor model containing mutant Her2 was used to test the ability of Compound No. 26 to inhibit tumor growth and induce tumor regression in vivo. Athymic nude mice from Charles River Labs bearing Her2 S310F BaF3 tumors were treated with Compound No. 26 either at 15 mg/kg once per day (QD), 7.5 mg/kg twice per day (BID), and 15 mg/kg twice per day (BID). Tumor size was measured for each dosing condition and analyzed to assess regression. […] The effect was further confirmed in mice dosed at 15 mg/kg once per day (QD), 7.5 mg/kg twice per day (BID), and 15 mg/kg twice per day (BID). In addition to assessing tumor size in these groups, plasma was collected from dosed individuals at 2 and 5 hours following each treatment. Compound No. 26 levels were measured in the plasma samples to determine pharmacokinetic profiles that may influence tumor response.
Tumor size was measured and analyzed to assess the effect on tumor growth and regression.
A mouse tumor model containing mutant Her2 was used to test the ability of Compound No. 6 to inhibit tumor growth and induce tumor regression in vivo. Athymic nude mice from Charles River Labs bearing Her2 S310F BaF3 tumors were treated with Compound No. 6 at 30 mg/kg once per day (QD) for 10 days. Tumor size was measured and analyzed to assess the effect on tumor growth and regression.

The mark [16] stands for this setting: Table B, read-out: HER2 WT, potency code (IC50).
[17] abbreviates: text lists of compounds, read-out: IC50 value for inhibiting wild-type HER2.
The mark [18] stands for this setting: 50 mg/kg once per day for 10 days.

T1 sequence (P00533 with tags, fused parts or gaps DUP768-770): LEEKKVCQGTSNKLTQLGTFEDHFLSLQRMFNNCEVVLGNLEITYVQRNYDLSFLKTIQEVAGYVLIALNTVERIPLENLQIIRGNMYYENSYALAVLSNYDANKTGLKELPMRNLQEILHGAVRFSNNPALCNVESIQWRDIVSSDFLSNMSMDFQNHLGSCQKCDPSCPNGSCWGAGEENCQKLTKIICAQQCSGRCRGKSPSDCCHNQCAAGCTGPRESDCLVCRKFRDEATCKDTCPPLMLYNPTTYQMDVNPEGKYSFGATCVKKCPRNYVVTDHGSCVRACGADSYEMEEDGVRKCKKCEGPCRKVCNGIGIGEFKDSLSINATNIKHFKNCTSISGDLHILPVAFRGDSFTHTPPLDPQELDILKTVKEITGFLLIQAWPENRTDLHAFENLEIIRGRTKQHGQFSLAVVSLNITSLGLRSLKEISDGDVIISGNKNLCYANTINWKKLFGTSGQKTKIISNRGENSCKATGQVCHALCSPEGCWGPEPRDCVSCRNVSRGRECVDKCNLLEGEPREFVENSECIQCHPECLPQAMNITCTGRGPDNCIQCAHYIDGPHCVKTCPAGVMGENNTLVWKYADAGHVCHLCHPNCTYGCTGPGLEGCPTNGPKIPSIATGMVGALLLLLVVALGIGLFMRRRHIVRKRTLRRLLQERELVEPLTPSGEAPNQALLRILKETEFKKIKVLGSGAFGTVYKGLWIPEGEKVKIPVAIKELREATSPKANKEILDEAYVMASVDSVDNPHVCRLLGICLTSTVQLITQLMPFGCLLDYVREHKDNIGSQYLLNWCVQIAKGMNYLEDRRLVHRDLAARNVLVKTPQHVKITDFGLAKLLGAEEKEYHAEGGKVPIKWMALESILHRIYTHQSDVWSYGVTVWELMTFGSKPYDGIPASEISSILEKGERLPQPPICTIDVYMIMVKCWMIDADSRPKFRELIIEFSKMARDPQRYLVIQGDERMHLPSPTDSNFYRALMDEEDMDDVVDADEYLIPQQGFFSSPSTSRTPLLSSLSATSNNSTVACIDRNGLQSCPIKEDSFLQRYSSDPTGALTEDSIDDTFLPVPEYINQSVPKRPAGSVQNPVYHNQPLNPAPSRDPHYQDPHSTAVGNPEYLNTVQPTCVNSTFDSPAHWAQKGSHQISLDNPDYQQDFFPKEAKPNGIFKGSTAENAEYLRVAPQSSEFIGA

On to `CC#CC(=O)Nc1cc2c(Nc3ccc(OCc4ccccn4)c(Cl)c3)ncnc2cc1OCCN1CCOCC1` [compound 5], for which the IC50 was 10 to 20 nM in experiment [1]; less than 5 nM in [2] (setting [16]); no more than 5 nM in [2] (setting [17]); less than 5 nM in [3]; 30 to 50 nM in experiment [4]; 5 to 10 nM in [5]. In addition, the IC50 in [6] was 30 to 50 nM; in experiment [7] it was 30 to 50 nM; in experiment [8], less than 5 nM; in [9], less than 5 nM; in experiment [10], 10 to 20 nM; in [11], 10 to 20 nM. Besides, the IC50 in [12] fell in the range of 30 to 50 nM; in experiment [13], 10 to 20 nM; in experiment [14], 5 to 10 nM.

In the case of `C=CC(=O)Nc1cc2c(Nc3cc(Cl)c(OCc4cccc(F)c4)cc3F)ncnc2cc1OCCN1CCOCC1` [compound 6], the IC50 in experiment [2] (setting [16]) was 5 to 10 nM; in [2] (setting [17]) it was no more than 10 nM; in experiment [3], 5 to 10 nM; in experiment [5], 50 to 100 nM; in experiment [7], 200 to 300 nM; in experiment [8] it was 10 to 20 nM. Also, the IC50 in experiment [9] was in the range of 10 to 20 nM; in experiment [10], 20 to 30 nM; in experiment [11], 20 to 30 nM; in experiment [12], 200 to 300 nM; in [14], 50 to 100 nM. For the same compound, the Tumor volume result in [15] (30 mg/kg once per day (QD) for 10 days, FIG. 30) was “decreased”.

Consider `C=CC(=O)Nc1cc2c(Nc3ccc(OCc4ccccn4)c(Cl)c3)ncnc2cc1OCCN1CCOCC1` [compound 8], for which the IC50 in [1] was 20 to 30 nM; in experiment [2] (setting [16]), 5 to 10 nM; in experiment [2] (setting [17]) it was no more than 10 nM; in experiment [3], 5 to 10 nM; in [4] it was 30 to 50 nM; in experiment [5] it was 50 to 100 nM. Further, the IC50 in [6] fell in the range of 30 to 50 nM; in [7], 300 to 500 nM; in experiment [8], 10 to 20 nM; in experiment [9], 10 to 20 nM; in experiment [10], 20 to 30 nM; in [11] it was 20 to 30 nM. Moreover, the IC50 was 300 to 500 nM in [12], 20 to 30 nM in [13] and 50 to 100 nM in experiment [14]. In experiment [15] (15 mg/kg to 100 mg/kg once per day (QD) for 10 days, FIG. 26 right panel), the “Tumor regression, dose-dependent experiment” value is recorded as “regressed in a Compound No. 8 dose-dependent manner”. The Tumor volume entry in experiment [15] (setting [18]) was “decreased”.

For the compound `C=CC(=O)Nc1cc2c(Nc3ccc(OCc4ccccn4)c(Cl)c3)ncnc2cc1OCCCN1CCOCC1` [compound 21], the IC50 in experiment [1] is 10 to 20 nM; in experiment [2] (setting [16]) it was less than 5 nM; in experiment [2] (setting [17]) it was no more than 10 nM; in experiment [3], less than 5 nM; in experiment [4], 10 to 20 nM; in [5], 20 to 30 nM. In addition, the IC50 in experiment [6] was in the range of 10 to 20 nM; in experiment [7], 500 to 1000 nM; in experiment [8], 5 to 10 nM; in experiment [9], 5 to 10 nM; in [10], 20 to 30 nM; in [11] it was 20 to 30 nM. The IC50 in [12] was 500 to 1000 nM; in experiment [13], 10 to 20 nM; in [14], 20 to 30 nM. Besides, the Tumor volume result in experiment [15] (setting [18]) was “did not increase over the same timeframe and showed moderate reduction in volume”.

For `C=CC(=O)Nc1cc2c(Nc3ccc(OCc4ccccn4)c(Cl)c3)ncnc2cc1C#C[C@@H]1[C@H]2CN(C)C[C@@H]12` [compound 26], the IC50 in experiment [1] was 30 to 50 nM; in experiment [2] (setting [16]) it was 5 to 10 nM; in experiment [2] (setting [17]), no more than 10 nM; in experiment [3], 5 to 10 nM; in experiment [4], 30 to 50 nM; in [5], 30 to 50 nM. Moreover, the IC50 in [6] fell in the range of 30 to 50 nM; in [7] it was 300 to 500 nM; in experiment [8] it was 5 to 10 nM; in experiment [9], 5 to 10 nM; in [10] it was 30 to 50 nM; in [11] it was 30 to 50 nM. In addition, the IC50 was 300 to 500 nM in [12], 30 to 50 nM in experiment [13] and 30 to 50 nM in [14]. Also, the Tumor response entry in experiment [15] (7.5 mg/kg twice per day (BID)) was “definite tumor growth inhibition properties”; in experiment [15] (15 mg/kg BID), “definite tumor regressive properties”; in experiment [15] (15 mg/kg once per day (QD)), “definite tumor growth inhibition properties”. In experiment [15] (15 mg/kg QD, 7.5 mg/kg BID, 15 mg/kg BID, FIG. 27), the “Tumor volume over the time course” value is “did not increase”.

Values taken from patent publication US11034672B1, “Tyrosine kinase inhibitor compositions, methods of making and methods of use” (Black Diamond Therapeutics, Inc., priority 2018, dated 2021).
